Where a name gives a salt, the structure may show the parent alone.
Experiment: Plasma stability assay in human plasma (LC-MS/MS)
Assay type: in vitro ADME
Conditions: 37° C., 3 μM test compound, time points 0-240 min, read-out: Plasma t1/2 (converted)
Method: Procaine and procainamide were purchased from Sigma Aldrich. HPLC-grade acetonitrile, water, methanol, and formic acid were purchased from Fisher Scientific. Human plasma (Cat. No. […]2N) was obtained from BIOIVT, and PBS (1× Dulbecco's, pH 7.4) from Thermo Fisher Scientific.
Test compounds were dissolved in DMSO to make a stock solution of 10 mM and then diluted to 500 μM in buffer or 70% methanol. Human plasma was thawed at ambient temperature and aliquoted (994.0 μL) to a 1.5 mL Eppendorf tube in duplicates (vials A and B) for each compound. The plasma was incubated at 37° C. for 10 min in an incubator shaker at 150 RPM; the reaction was initiated by addition of the test compound (6.0 μL), followed by vortex mixing. The total reaction volume was 1000 μL, the final organic solvent concentrations were […] (when 70% methanol was used for dilution) and 0.03% DMSO, and the final concentration of the test compound was 3 μM. The spiked plasma samples were incubated at 37° C. for 4 h. The reactions were terminated at time point 0, 15, 30, 60, 120, 180, and 240 min by taking a 100 μL aliquot from the test incubation mixture and immediately quenching it by adding it into ice-cold acetonitrile or methanol (150 μL) containing 2 μM internal standard (ISTD), followed by vortex mixing. The ISTD was d5-7-ethoxy coumarin. The samples were then centrifuged at 15000 RPM for 25 min at 4° C., and the supernatant was transferred to an LC-MS vial for analysis by LC-MS/MS. Each time point was tested in duplicates followed by in-between blank washes to avoid carryover and to equilibrate the column.
Procaine (poor plasma stability) and procainamide (good plasma stability) were used as controls at the same concentration as that of the test compound. These controls were run in parallel to test the assay's competency. Matrix blank was prepared by adding acetonitrile or methanol containing ISTD to plasma samples without any of the test or control compounds. Also, an additional control sample was made to simply monitor compound degradation in PBS buffer.
Below is a summary of samples prepared for a given test compound in a typical plasma stability assay: • Test compound (TC): 994 μL human plasma+6.0 μL TC (Vial A) • 994 μL human plasma+6.0 μL TC (Vial B) • Control: 596 μL human plasma+3.6 μL (procaine+procainamide) • Blank matrix: 500 μL PBS buffer+100 μL human plasma • Additional control: 142 μL PBS buffer+0.9 μL TC • Quenching mixture: 150 μL acetonitrile or methanol with ISTD (2 μM) • Final volume: 250 μL (100 μL from the incubation mixture+150 μL quenching mixture; final ISTD conc.: 1.2 μM)
LC-MS/MS analysis was performed using Agilent 1260 Infinity II HPLC, coupled with an Agilent G6460 triple quadrupole mass spectrometer (Agilent Technologies, USA). The data were acquired and processed using the Agilent 6460 Quantitative Analysis data processing software.
Reverse-phase HPLC separation for each compound was achieved on an Agilent InfinityLab Poroshell 120 C18 column (2.1×50 mm, 2.7 μm) with a mobile phase composed of methanol/water with 0.1% formic acid or acetonitrile/water with 0.1% formic acid at a flow rate of 0.5 mL/min. Each method was developed in the presence of the ISTD. The column temperature was maintained at 40° C. The detection was operated using the Agilent Jet-Stream electrospray positive ionization under the multiple reaction monitoring (MRM) mode. The mass spec conditions were as follows: dwell time 100 ms; gas flow 10 L/min; nebulizer pressure 45 psi; delta EMV 200 V.
Plots of time (x-axis) vs. the natural logarithm of percent parent remaining (y-axis) were subsequently constructed to determine the slope. Finally, the plasma stability was evaluated using the following equation: […]

| SMILES | half-life at 3 μM [h] |
| --- | --- |
| CNCCN(C)C(=O)O/N=C(\C)[C@H]1CC[C@H]2[C@@H]3CCC4C[C@@H](O)CC[C@]4(C)[C@H]3CC[C@]12C (stereo partly drawn) [12a, (E)-1-((3S,8R,9S,10S,13S,14S,17S)-3-hydroxy-10,13-dimethylhexadecahydro-1H-cyclopenta[a]phenanthren-17-yl)ethan-1-one O-(methyl (2-(methylamino)ethyl)carbamoyl) oxime trifluoroacetate] | 1.45 |
| CNCCN(C)C(=O)O/N=C(\C)[C@H]1CC[C@H]2[C@@H]3CC=C4C[C@@H](O)CC[C@]4(C)[C@H]3CC[C@]12C [12b, (E)-1-((3S,8S,9S,10R,13S,14S,17S)-3-hydroxy-10,13-dimethyl-2,3,4,7,8,9,10,11,12,13,14,15,16,17-tetradecahydro-1H-cyclopenta[a]phenanthren-17-yl)ethan-1-one O-(methyl (2-(methylamino)ethyl)carbamoyl)oxime trifluoroacetate] | 1.23 |
| CNCCN(C)C(=O)O/N=C(\C)[C@H]1CC[C@H]2[C@@H]3CCC4C[C@H](O)CC[C@]4(C)[C@H]3CC[C@]12C (stereo partly drawn) [12c, (E)-1-((3R,8R,9S,10S,13S,14S,17S)-3-hydroxy-10,13-dimethylhexadecahydro-1H-cyclopenta[a]phenanthren-17-yl)ethan-1-one O-(methyl (2-(methylamino)ethyl)carbamoyl)oxime trifluoroacetate] | 1.39 |
| C/C(=N\OC(=O)N(C)C[C@@H]1CCCN1)[C@H]1CC[C@H]2[C@@H]3CCC4C[C@@H](O)CC[C@]4(C)[C@H]3CC[C@]12C (stereo partly drawn) [13a, (E)-1-((3S,8R,9S,10S,13S,14S,17S)-3-hydroxy-10,13-dimethylhexadecahydro-1H-cyclopenta[a]phenanthren-17-yl)ethan-1-one O-(methyl(((S)-pyrrolidin-2-yl)methyl)carbamoyl)oxime trifluoroacetate] | < 0.1 |
| C/C(=N\OC(=O)N(C)C[C@@H]1CCCN1)[C@H]1CC[C@H]2[C@@H]3CC=C4C[C@@H](O)CC[C@]4(C)[C@H]3CC[C@]12C [13b, (E)-1-((3S,8S,9S,10R,13S,14S,17S)-3-hydroxy-10,13-dimethyl-2,3,4,7,8,9,10,11,12,13,14,15,16,17-tetradecahydro-1H-cyclopenta[a]phenanthren-17-yl)ethan-1-one O-(methyl(((S)-pyrrolidin-2-yl)methyl)carbamoyl)oxime trifluoroacetate] | < 0.1 |
| C/C(=N\OC(=O)N(C)C[C@@H]1CCCN1)[C@H]1CC[C@H]2[C@@H]3CCC4C[C@H](O)CC[C@]4(C)[C@H]3CC[C@]12C (stereo partly drawn) [13c, (E)-1-((3R,8R,9S,10S,13S,14S,17S)-3-hydroxy-10,13-dimethylhexadecahydro-1H-cyclopenta[a]phenanthren-17-yl)ethan-1-one O-(methyl(((S)-pyrrolidin-2-yl)methyl)carbamoyl)oxime trifluoroacetate] | < 0.1 |

From patent US20250026781A1, “Prodrugs of Neurosteroid Analogs and Uses Thereof” (Emory University, priority 2021, published 2025)
